Laboratory results taken from article PMC8279417 (Journal of Medicinal Chemistry, 2021).
Read-outs that look alike come from different tables or passages of the source.

Tests used:
MCF-7 cells = assay: Cellular uptake into MCF-7 cells (fluorometry, related to protein content); assay type: in vitro ADME; details: 10 μM, after 4 h (saturation), nmol compound/mg protein
Experimental: (§1) The compounds were incubated at a concentration of 10 μM with either MCF-7 or COS-7 cells, and the intracellular amount, determined by fluorometry, was related to the protein content.[42]
(§2) The determination of the cellular uptake in MCF-7 and COS-7 cells was performed as already described.[24] Measurement was conducted with the Enspire multimode plate reader.

COS-7 cells = assay: Cellular uptake into COS-7 cells (fluorometry, related to protein content); assay type: in vitro ADME, African green monkey; details: 10 μM, after 4 h, nmol compound/mg protein
Experimental: as §1, §2

ERα [1] = molecular target: T1, ERα (Homo sapiens, UniProt P03372); assay: Luciferase reporter gene assay (transactivation), U2OS cells transfected with pSG5-ERα; assay type: cell-based; details: inhibition of E2-induced (0.03 nM) transactivation
T1 sequence (P03372 1-595): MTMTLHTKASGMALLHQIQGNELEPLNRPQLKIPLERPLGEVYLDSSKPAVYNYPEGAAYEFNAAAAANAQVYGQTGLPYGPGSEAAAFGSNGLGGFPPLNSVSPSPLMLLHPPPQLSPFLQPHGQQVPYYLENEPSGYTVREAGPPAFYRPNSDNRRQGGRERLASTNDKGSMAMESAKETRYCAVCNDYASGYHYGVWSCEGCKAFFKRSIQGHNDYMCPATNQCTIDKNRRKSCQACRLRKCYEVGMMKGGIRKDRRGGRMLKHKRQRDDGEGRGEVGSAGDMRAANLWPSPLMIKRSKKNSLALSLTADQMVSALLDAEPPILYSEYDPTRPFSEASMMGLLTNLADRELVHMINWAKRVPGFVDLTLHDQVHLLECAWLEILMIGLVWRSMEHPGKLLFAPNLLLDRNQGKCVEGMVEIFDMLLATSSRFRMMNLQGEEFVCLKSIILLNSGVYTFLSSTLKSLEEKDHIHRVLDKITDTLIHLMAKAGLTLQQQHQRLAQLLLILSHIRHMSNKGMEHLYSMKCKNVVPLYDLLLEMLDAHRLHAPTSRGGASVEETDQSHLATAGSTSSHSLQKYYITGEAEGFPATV

ERβ [2] = molecular target: T2, ERβ (Homo sapiens, UniProt Q92731); assay: Luciferase reporter gene assay (transactivation), U2OS cells transfected with pSG5-ERβ; assay type: cell-based; details: inhibition of E2-induced (0.3 nM) transactivation
Target sequence in this assay (Q92731 whole entry): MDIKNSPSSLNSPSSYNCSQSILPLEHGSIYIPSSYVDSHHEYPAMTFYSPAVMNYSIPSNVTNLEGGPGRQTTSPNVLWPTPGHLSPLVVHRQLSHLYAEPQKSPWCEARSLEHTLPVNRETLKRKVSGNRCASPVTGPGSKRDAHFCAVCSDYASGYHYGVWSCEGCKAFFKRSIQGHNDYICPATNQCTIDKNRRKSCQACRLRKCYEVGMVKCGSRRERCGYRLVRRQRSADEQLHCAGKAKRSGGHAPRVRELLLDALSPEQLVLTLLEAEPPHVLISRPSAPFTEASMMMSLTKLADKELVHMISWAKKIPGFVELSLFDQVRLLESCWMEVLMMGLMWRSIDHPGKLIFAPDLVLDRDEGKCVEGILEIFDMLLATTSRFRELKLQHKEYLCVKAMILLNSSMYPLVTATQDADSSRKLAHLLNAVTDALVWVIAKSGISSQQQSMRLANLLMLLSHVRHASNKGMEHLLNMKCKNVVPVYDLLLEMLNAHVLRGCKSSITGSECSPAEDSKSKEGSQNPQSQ

ERα [3] = molecular target: T1, ERα; assay: In-Cell Western immunoassay, ERα levels in MCF-7 cells; assay type: cell-based; details: for Emax at 1 µM: MCF7, read-out: % efficacy [1 μM], downregulation of ERα compared to fulvestrant (100%), MCF-7, 1 μM
Experimental: Degradation was evaluated with the CellTagTM 700 In-Cell Western kit (LI-COR, Lincoln) according to the manufacturer’s protocol. MCF-7 cells were treated, and calculation was performed as previously described.[24]

MCF-7TamR cells = assay: Crystal violet assay, MCF-7TamR cells; assay type: cell-based
MDA-MB-231 cells = assay: Crystal violet assay, MDA-MB-231 cells; assay type: cell-based
ERα [4] = molecular target: T3, ERα (Homo sapiens, UniProt P03372); details: for IC50: read-out: TR-FRET ERα IC50, displacement of fluorescent-labeled E2 from the LBD of ERα; for RBA ERα: relative binding affinity compared to E2 (100%)
T3 sequence (P03372 311-547 limits assumed): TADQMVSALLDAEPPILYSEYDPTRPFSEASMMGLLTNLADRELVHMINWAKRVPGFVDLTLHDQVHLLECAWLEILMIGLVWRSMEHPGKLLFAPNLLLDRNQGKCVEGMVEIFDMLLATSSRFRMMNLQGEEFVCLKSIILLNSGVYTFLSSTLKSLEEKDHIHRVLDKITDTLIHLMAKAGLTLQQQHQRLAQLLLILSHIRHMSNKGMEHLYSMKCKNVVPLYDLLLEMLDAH
Experimental: (§3) LanthaScreen TR-FRET ER alpha/beta competitive binding assays (Invitrogen, Carlsbad) were used to investigate the binding affinity to the isolated receptors according to the manufacturer′s protocols. Measurement was performed with an Enspire multimode plate reader (PerkinElmer Life Sciences, Waltham). Calculations were performed with Excel (Microsoft, Redmond) and GraphPad Prism (GraphPad Software, San Diego).

ERβ [5] = molecular target: T2, ERβ; details: for IC50: read-out: TR-FRET ERβ IC50, displacement of fluorescent-labeled E2 from the LBD of ERβ; for RBA ERβ: relative binding affinity compared to E2 (100%)
Target sequence in this assay (Q92731 264-498 limits assumed): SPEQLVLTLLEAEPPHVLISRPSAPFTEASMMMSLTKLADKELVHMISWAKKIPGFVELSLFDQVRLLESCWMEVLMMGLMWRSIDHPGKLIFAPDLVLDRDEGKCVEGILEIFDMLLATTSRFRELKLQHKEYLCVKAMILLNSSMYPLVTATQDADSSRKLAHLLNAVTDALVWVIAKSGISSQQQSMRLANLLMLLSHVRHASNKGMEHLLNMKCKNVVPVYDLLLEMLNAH
Experimental: as §3

[6] = 0.5 mM, methanol/2× PBS (75:25), 37 °C, 72 h
Text: For the interpretation of the biological results, it is necessary to obtain information about the isomerization by simulating physiological conditions.

Row | SMILES | cellular uptake, MCF-7 cells (MCF-7 cells) | cellular uptake, COS-7 cells (COS-7 cells) | IC50 (ERα [1]) | IC50 (ERβ [2]) | Emax at 1 µM (ERα [3]) | T/Ccorr MCF-7TamR (MCF-7TamR cells) | T/Ccorr MDA-MB-231 (MDA-MB-231 cells) | IC50 (ERα [4]) | RBA ERα (ERα [4]) | IC50 (ERβ [5]) | RBA ERβ (ERβ [5]) | % ERα remaining [1 μM] (ERα [3]; MCF-7 cells, 24 h, 1 μM, compared to the solvent control (DMSO)) | % efficacy [1 μM] (ERα [3]; downregulation of ERα compared to fulvestrant (100%), MCF-7, 1 μM) | amount of the E isomer [6]
1 | CCC(=C(c1ccc(O)cc1)c1ccc(/C=C/C(=O)NCCCNC(=O)CCCn2c(=S)[nH]c3ccccc3c2=O)cc1)c1ccccc1 (mixture of isomers) [Compound 15] | 2.8 nmol/mg | 1.6 nmol/mg | 30.2 ± 14.3 nM | 4.1 ± 0.6 nM | 60% | about 40% | 20% | 4.01 ± 1.9 nM | 8.2% | 12.6 ± 4.8 nM | 5.9% |  |  | 
2 | CCC(=C(c1ccc(O)cc1)c1ccc(/C=C/C(=O)NCCCNC(=O)c2ccc(N3CCN(C(=O)CCCn4c(=S)[nH]c5ccccc5c4=O)CC3)cc2)cc1)c1ccccc1 (mixture of isomers) [Compound 17] |  |  | 104 ± 14 nM | 48 ± 12 nM | 94.5% | about 40% |  | 4.63 ± 1.74 nM | 7.1% | 18.5 ± 4.8 nM | 4% | 5.5 ± 5.0% | 95% | 25%
